Drawing on PubChem BioAssay (NCI), this text covers TGI and GI50 for 13 molecules.

What all share (experiment): DTP human tumour cell line panel, 48 h
In assay [1] the test system is CAKI-1 renal.
Assay [2] deals with HT29 colon.
Assay [3] concerns IGROV1 ovarian.
Assay [4] deals with K-562 leukemia.
In assay [5] the test system is KM12 colon.
Assay [6] has as its system SF-295 CNS.
Assay [7] concerns SK-OV-3 ovarian.
Assay [8] has as its system U251 CNS.
In assay [9] the test system is UO-31 renal.
Assay [10] concerns LOX IMVI melanoma.

The structures appear in SMILES notation.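 Each compound was tested at five concentrations against cells in 96-well plates for 48 hours. GI50 is the concentration that inhibits growth by half. Definition used: TGI = concentration required for complete inhibition of growth.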 Where a SMILES comes first, the peptide text is derived from it. [ ]: non-standard residue; d: D form. The star is where a group is joined. NMeF = CN[CH](Cc1ccccc1)C(=O)O; NMeV = CN[CH](C(=O)O)C(C)C; Boc = CC(C)(C)OC(=O)*; OBn = c1ccc(CO*)cc1

What is called TGI is the concentration at which net growth stops. Lower therefore signals more potent growth arrest. For the molecule `CCCNC(=O)c1cc2ccccc2cc1C(=O)OC`, the TGI in assay [1], in assay [2], in assay [3], in [4], in [5] and in assay [6] was more than 100 µM throughout. Moreover, the TGI in [7], in assay [8] and in [9] was more than 100 µM each time.
Consider `CC1SC2=NC3=C(c4ccccc4C3=O)C(c3ccc(Br)cc3)N2C1=O` (stereo not given), for which the TGI in [1], in assay [2], in assay [3], in assay [4], in assay [5] and in [6] was more than 100 µM throughout. The TGI in assay [7], in assay [8] and in [9] was more than 100 µM each time.
As to `BrP(NC1CCCCCC1)(c1ccccc1)(c1ccccc1)c1ccccc1`, the TGI in assay [1] was 13 µM; in [2], 4.66 µM; in assay [3] it was 21.7 µM; in [4], more than 100 µM; in [5], 3.37 µM; in assay [10], 10.4 µM. Further, the TGI amounted to 12.2 µM in assay [6], 13.4 µM in [8] and 17.4 µM in assay [9].
Take `CC(C)O/C=C1\C(=O)C2(SCCS2)[C@H]2CCCC[C@@H]12`: the TGI in assay [1], in assay [3], in assay [4], in assay [5], in assay [7] and in assay [8] was more than 100 µM throughout. The TGI in assay [9] is more than 100 µM.
For orientation: GI50 means the concentration giving 50% growth inhibition. With `O=C(c1ccc(O)cc1)c1ccc(C(=O)c2ccc(O)cc2)cc1`, the GI50 is more than 100 µM in [2]; 6.32 µM in assay [3]; more than 100 µM in assay [5]; more than 100 µM in assay [10]; 6.06 µM in assay [6]; 23.3 µM in assay [7]. The GI50 in [8] was 16.9 µM. Besides, the TGI in assay [2], in assay [3], in assay [5], in assay [10], in assay [6] and in assay [7] was more than 100 µM each time. In assay [8], this molecule returned a TGI of more than 100 µM.
As to `Cc1cc(N(CCCNc2ccnc3cc(Cl)ccc23)Cc2cccs2)nc(Cl)n1`, the GI50 in assay [2] was 1.51 µM; in [3], 2.9 µM; in assay [4] it was 0.743 µM; in [5], 4.16 µM; in assay [10], 2.79 µM; in [7], 7.05 µM. In addition, the GI50 is 6.75 µM in [8] and 0.986 µM in assay [9]. For the same molecule, the TGI was 12.4 µM in assay [2]; 18.9 µM in assay [3]; 12.2 µM in assay [4]; 17 µM in assay [5]; 11.7 µM in [10]; 22.1 µM in assay [7]. For the same molecule, the TGI in assay [8] amounted to 22.2 µM; in [9], 7.73 µM.
For `COc1cc2c(cc1OCCCCCCNC(=O)c1cc3ccccc3[nH]1)N=CC1CCCN1C2=O` (stereo not given), the GI50 in assay [2] is 41.8 µM; in assay [3], 17.4 µM; in assay [4], 30.5 µM; in assay [5], 34.8 µM; in assay [10] it was 31.8 µM; in assay [6], 31.1 µM. Moreover, the GI50 in assay [7] was 64.8 µM; in [8], 40 µM; in assay [9], 33.9 µM. Also, the TGI in assay [2], in [3], in [4], in assay [5], in assay [10] and in assay [6] was more than 100 µM throughout. The TGI in assay [7], in [8] and in [9] was more than 100 µM throughout.
As to `COc1ccc(CNc2nc3ccccc3nc2-c2cccs2)cc1OC`, the TGI in assay [2], in assay [4], in assay [6], in assay [8] and in assay [9] was more than 100 µM in each case.
As to `CCN(CC)C(=O)c1c(N2CCOCC2)cc(N(CC)CC)oc1=O`, the TGI in assay [2], in assay [3], in [4], in [5], in assay [10] and in [6] was more than 100 µM throughout. In addition, the TGI in assay [7], in assay [8] and in [9] was more than 100 µM each time.
For `OCCc1cnco1`, the TGI in assay [2], in assay [3], in [4], in assay [5], in [10] and in assay [6] was more than 100 µM in each case. The TGI in [7] and in [8] was more than 100 µM throughout.
In the case of `C(=C1\CCC/C(=C/c2ccccc2)C1=NNc1ccccc1)/c1ccccc1`, the TGI in assay [2], in assay [3], in assay [4], in assay [5], in assay [10] and in [6] was more than 100 µM throughout. In addition, the TGI in assay [7], in [8] and in assay [9] was more than 100 µM in each case.
For the molecule `CC(C)C(NC(=O)OC(C)(C)C)C(=O)N(C)C(Cc1ccccc1)C(=O)N(C)C(C(=O)N(C)C(C(=O)OCc1ccccc1)C(C)C)C(C)C` (stereo not given) (Boc-V[NMeF][NMeV][NMeV]-OBn; configuration not given here), the TGI in [2], in assay [3], in assay [4], in assay [5], in assay [10] and in [6] was more than 100 µM throughout. The TGI in [8] and in assay [9] was more than 100 µM throughout.
`N/C(=N\OC(=O)NC(Cl)=C(Cl)Cl)c1cc(C(F)(F)F)cc(C(F)(F)F)c1`: the TGI was determined as 33.8 µM in assay [1]; 34.4 µM in assay [2]; 66 µM in [3]; 31.1 µM in assay [5]; 31.8 µM in assay [10]; 34.8 µM in assay [6]. Further, the TGI in [7] was 84.4 µM; in [8], 31.3 µM; in assay [9], 33.9 µM.
